{"source": "the kinase profiling compilation of Christmann-Franck et al. (2016)", "experiment_in_all_cases": "radiometric filter-binding kinase assay", "key": {"IGF1R (human)": {"target": "IGF1R (human) (UniProt P08069)", "conditions": "compound 0.1 µM"}, "MKNK1 (human)": {"target": "MKNK1 (human) (UniProt Q9BUB5)"}, "SRPK1 (human)": {"target": "SRPK1 (human) (UniProt Q96SB4)", "sequence (Q96SB4 whole entry, looked up)": "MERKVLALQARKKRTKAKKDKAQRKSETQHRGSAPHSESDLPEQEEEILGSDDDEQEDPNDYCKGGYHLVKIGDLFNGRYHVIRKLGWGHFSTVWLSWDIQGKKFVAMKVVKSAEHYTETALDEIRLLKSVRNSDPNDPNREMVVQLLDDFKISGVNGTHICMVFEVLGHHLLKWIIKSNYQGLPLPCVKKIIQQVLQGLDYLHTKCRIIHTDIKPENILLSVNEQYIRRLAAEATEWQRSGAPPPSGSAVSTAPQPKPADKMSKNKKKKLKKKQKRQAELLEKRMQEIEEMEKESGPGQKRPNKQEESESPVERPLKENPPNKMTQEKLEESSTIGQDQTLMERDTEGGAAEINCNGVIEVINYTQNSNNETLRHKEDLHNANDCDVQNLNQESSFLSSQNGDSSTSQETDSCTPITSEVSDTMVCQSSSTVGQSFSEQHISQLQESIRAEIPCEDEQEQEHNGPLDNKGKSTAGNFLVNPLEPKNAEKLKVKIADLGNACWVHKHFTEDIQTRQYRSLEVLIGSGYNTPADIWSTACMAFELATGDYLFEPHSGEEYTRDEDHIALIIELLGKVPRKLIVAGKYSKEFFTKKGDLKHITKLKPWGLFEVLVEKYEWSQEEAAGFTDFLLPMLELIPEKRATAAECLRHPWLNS"}, "STK3 (human)": {"target": "STK3 (human) (UniProt Q13188)"}, "CHEK1 (human)": {"target": "CHEK1 (human) (UniProt O14757)"}, "CaMK1 (human)": {"target": "CaMK1 (human) (UniProt Q14012)", "sequence (Q14012 whole entry, looked up)": "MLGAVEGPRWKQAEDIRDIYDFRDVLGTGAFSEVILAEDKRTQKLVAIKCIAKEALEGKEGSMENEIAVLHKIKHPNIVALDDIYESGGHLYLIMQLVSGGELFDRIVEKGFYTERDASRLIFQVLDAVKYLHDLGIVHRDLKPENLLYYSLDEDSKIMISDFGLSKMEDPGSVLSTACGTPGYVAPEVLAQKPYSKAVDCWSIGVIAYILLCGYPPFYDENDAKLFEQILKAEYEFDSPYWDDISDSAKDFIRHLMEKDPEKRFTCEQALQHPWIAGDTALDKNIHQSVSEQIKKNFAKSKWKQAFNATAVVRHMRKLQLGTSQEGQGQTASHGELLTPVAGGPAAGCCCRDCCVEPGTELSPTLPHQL"}, "FGFR1 (human)": {"target": "FGFR1 (human) (UniProt P11362)"}, "CAMKK2 (human)": {"target": "CAMKK2 (human) (UniProt Q96RR4)"}, "MAPK8 (human)": {"target": "MAPK8 (human) (UniProt P45983)", "sequence (P45983 whole entry, looked up)": "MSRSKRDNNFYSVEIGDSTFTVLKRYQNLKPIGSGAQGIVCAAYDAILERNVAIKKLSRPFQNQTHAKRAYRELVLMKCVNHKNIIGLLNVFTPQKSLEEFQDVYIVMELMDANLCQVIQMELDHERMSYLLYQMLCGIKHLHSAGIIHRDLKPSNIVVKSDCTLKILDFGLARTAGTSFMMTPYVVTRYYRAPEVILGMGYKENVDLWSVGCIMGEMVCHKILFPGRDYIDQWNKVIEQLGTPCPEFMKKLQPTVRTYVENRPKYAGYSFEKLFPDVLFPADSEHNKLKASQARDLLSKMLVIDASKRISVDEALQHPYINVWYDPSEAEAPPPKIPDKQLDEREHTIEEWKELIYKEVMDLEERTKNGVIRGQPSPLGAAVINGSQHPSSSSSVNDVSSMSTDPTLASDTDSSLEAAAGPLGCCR"}, "TBK1 (human)": {"target": "TBK1 (human) (UniProt Q9UHD2)", "sequence (Q9UHD2 whole entry, looked up)": "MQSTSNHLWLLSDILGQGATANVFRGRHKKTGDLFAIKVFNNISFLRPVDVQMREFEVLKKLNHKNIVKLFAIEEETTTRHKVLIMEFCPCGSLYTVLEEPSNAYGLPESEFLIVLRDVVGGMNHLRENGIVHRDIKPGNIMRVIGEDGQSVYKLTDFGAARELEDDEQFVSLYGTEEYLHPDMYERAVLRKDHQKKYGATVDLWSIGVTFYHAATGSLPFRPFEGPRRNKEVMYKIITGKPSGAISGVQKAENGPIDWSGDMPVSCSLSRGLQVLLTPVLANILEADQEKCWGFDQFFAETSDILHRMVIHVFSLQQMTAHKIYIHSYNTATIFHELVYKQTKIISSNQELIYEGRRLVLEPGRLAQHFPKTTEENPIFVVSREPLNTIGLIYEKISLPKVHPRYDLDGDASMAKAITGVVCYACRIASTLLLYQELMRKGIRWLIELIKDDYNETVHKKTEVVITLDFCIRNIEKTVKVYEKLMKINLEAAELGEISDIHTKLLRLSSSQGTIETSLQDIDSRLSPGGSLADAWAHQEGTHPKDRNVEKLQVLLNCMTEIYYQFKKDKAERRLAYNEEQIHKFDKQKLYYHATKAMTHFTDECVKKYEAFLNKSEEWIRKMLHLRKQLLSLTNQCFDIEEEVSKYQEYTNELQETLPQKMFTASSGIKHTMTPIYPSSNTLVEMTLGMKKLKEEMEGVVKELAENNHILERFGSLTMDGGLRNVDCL"}, "HIPK1 (human)": {"target": "HIPK1 (human) (UniProt Q86Z02)"}, "PHKG1 (human)": {"target": "PHKG1 (human) (UniProt Q16816)"}, "DYRK1A (human)": {"target": "DYRK1A (human) (UniProt Q13627)"}, "MARK3 (human)": {"target": "MARK3 (human) (UniProt P27448)", "sequence (P27448 whole entry, looked up)": "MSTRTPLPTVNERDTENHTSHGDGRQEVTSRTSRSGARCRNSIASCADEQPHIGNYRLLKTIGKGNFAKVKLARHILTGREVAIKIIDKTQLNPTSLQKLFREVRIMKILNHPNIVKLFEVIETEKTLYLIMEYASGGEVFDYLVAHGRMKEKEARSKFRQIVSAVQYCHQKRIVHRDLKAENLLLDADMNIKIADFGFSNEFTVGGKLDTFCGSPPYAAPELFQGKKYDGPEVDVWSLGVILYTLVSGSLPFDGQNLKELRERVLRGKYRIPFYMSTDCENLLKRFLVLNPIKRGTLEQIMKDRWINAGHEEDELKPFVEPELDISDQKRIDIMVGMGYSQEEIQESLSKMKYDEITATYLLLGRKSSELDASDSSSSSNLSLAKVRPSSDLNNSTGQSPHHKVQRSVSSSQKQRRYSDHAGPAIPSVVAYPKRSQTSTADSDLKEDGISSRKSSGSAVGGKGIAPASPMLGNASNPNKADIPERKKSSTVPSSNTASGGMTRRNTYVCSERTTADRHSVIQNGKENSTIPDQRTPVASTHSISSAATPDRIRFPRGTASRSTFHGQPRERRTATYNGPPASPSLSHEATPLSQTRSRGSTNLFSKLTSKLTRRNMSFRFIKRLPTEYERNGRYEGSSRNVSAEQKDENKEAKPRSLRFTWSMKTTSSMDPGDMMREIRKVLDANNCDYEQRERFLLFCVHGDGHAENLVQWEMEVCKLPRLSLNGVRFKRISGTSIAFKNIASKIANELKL"}, "JAK2 JH1 JH2 (human)": {"target": "JAK2 JH1 JH2 (human) (UniProt O60674)"}, "YES1 (human)": {"target": "YES1 (human) (UniProt P07947)"}, "[1]": {"system": "SGK1 (human), O00141 [S422D]", "sequence (O00141 whole entry S422D, looked up)": "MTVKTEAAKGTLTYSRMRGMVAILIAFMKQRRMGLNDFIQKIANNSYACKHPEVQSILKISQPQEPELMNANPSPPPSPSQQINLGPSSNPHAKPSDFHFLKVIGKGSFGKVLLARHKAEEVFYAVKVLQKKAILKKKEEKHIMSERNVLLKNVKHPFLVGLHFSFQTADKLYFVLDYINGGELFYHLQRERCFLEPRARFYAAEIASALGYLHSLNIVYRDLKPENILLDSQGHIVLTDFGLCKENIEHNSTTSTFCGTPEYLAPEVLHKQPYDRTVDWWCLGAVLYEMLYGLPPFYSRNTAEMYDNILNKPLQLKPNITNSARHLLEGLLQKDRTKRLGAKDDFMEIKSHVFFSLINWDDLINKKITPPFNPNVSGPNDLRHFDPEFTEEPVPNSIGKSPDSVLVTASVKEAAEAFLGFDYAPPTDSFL"}, "MINK1 (human)": {"target": "MINK1 (human) (UniProt Q8N4C8)", "sequence (Q8N4C8 whole entry, looked up)": "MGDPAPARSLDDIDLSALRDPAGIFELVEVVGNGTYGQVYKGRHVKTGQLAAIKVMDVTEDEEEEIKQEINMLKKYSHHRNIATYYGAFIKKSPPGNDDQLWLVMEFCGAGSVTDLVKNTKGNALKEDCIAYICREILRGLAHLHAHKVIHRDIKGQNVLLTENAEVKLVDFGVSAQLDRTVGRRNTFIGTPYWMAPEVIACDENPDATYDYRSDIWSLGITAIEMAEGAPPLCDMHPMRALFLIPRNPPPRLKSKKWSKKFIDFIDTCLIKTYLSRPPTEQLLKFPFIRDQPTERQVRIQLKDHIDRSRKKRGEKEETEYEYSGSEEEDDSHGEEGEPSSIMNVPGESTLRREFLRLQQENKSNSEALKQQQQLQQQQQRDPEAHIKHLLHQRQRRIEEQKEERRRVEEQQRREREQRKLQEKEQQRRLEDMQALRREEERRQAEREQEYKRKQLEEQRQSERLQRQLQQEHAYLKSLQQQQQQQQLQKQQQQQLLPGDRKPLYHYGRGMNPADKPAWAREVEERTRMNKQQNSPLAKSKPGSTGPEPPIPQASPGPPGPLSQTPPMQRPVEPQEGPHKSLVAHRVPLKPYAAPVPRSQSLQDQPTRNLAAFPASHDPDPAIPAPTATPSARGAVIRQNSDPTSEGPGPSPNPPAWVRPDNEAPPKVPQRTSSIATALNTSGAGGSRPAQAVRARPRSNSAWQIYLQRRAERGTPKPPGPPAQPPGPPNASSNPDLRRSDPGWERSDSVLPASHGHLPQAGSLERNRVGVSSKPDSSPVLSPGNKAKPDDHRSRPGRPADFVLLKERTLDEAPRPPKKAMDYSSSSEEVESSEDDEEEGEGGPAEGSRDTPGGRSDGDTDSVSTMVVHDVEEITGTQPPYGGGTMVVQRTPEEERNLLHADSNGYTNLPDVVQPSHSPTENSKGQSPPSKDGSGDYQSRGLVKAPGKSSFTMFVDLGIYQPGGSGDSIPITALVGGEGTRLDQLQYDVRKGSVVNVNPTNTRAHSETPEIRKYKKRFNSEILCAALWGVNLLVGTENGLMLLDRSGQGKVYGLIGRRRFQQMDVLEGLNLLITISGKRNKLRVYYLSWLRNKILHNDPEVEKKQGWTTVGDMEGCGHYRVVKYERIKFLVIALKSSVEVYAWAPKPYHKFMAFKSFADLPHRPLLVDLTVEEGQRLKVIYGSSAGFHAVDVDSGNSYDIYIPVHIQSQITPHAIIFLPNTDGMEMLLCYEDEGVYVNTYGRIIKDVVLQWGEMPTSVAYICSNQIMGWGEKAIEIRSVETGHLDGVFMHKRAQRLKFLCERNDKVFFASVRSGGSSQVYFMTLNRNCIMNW"}, "MAPKAPK5 (human)": {"target": "MAPKAPK5 (human) (UniProt Q8IW41)"}}, "data": [{"smiles": "COc1cc(O)c2c(c1)[C@H]1OC1C[C@H](O)[C@H](O)C(=O)/C=C\\C[C@H](C)OC2=O", "note": "(stereo partly specified)", "values": [{"measurement": "residual activity", "setting": "IGF1R (human)", "value": 100, "unit": "%"}, {"measurement": "residual activity", "setting": "MKNK1 (human); compound 0.01 µM", "value": 100, "unit": "%"}, {"measurement": "residual activity", "setting": "MKNK1 (human); compound 0.1 µM", "value": 87, "unit": "%"}, {"measurement": "residual activity", "setting": "MKNK1 (human); compound 1.0 µM", "value": 55, "unit": "%"}, {"measurement": "residual activity", "setting": "SRPK1 (human); compound 0.01 µM", "value": 111, "unit": "%"}, {"measurement": "residual activity", "setting": "SRPK1 (human); compound 0.1 µM", "value": 95, "unit": "%"}, {"measurement": "residual activity", "setting": "SRPK1 (human); compound 1.0 µM", "value": 100, "unit": "%"}, {"measurement": "residual activity", "setting": "STK3 (human); compound 0.01 µM", "value": 97, "unit": "%"}, {"measurement": "residual activity", "setting": "STK3 (human); compound 0.1 µM", "value": 89, "unit": "%"}, {"measurement": "residual activity", "setting": "STK3 (human); compound 1.0 µM", "value": 102, "unit": "%"}, {"measurement": "residual activity", "setting": "CHEK1 (human); compound 0.01 µM", "value": 93, "unit": "%"}, {"measurement": "residual activity", "setting": "CHEK1 (human); compound 0.1 µM", "value": 93, "unit": "%"}, {"measurement": "residual activity", "setting": "CHEK1 (human); compound 1.0 µM", "value": 94, "unit": "%"}, {"measurement": "residual activity", "setting": "CaMK1 (human); compound 0.01 µM", "value": 96, "unit": "%"}, {"measurement": "residual activity", "setting": "CaMK1 (human); compound 0.1 µM", "value": 96, "unit": "%"}, {"measurement": "residual activity", "setting": "CaMK1 (human); compound 1.0 µM", "value": 112, "unit": "%"}, {"measurement": "residual activity", "setting": "FGFR1 (human); compound 0.01 µM", "value": 118, "unit": "%"}, {"measurement": "residual activity", "setting": "FGFR1 (human); compound 0.1 µM", "value": 154, "unit": "%"}, {"measurement": "residual activity", "setting": "CAMKK2 (human); compound 0.01 µM", "value": 102, "unit": "%"}, {"measurement": "residual activity", "setting": "CAMKK2 (human); compound 0.1 µM", "value": 99, "unit": "%"}, {"measurement": "residual activity", "setting": "MAPK8 (human); compound 0.01 µM", "value": 104, "unit": "%"}, {"measurement": "residual activity", "setting": "MAPK8 (human); compound 0.1 µM", "value": 98, "unit": "%"}, {"measurement": "residual activity", "setting": "MAPK8 (human); compound 1.0 µM", "value": 80, "unit": "%"}, {"measurement": "residual activity", "setting": "TBK1 (human); compound 0.01 µM", "value": 110, "unit": "%"}, {"measurement": "residual activity", "setting": "TBK1 (human); compound 0.1 µM", "value": 112, "unit": "%"}, {"measurement": "residual activity", "setting": "TBK1 (human); compound 1.0 µM", "value": 93, "unit": "%"}, {"measurement": "residual activity", "setting": "HIPK1 (human); compound 0.01 µM", "value": 111, "unit": "%"}, {"measurement": "residual activity", "setting": "HIPK1 (human); compound 0.1 µM", "value": 99, "unit": "%"}, {"measurement": "residual activity", "setting": "HIPK1 (human); compound 1.0 µM", "value": 95, "unit": "%"}, {"measurement": "residual activity", "setting": "PHKG1 (human); compound 0.01 µM", "value": 100, "unit": "%"}, {"measurement": "residual activity", "setting": "PHKG1 (human); compound 0.1 µM", "value": 98, "unit": "%"}, {"measurement": "residual activity", "setting": "PHKG1 (human); compound 1.0 µM", "value": 107, "unit": "%"}, {"measurement": "residual activity", "setting": "DYRK1A (human); compound 0.01 µM", "value": 98, "unit": "%"}, {"measurement": "residual activity", "setting": "DYRK1A (human); compound 0.1 µM", "value": 105, "unit": "%"}, {"measurement": "residual activity", "setting": "DYRK1A (human); compound 1.0 µM", "value": 101, "unit": "%"}, {"measurement": "residual activity", "setting": "MARK3 (human); compound 0.01 µM", "value": 98, "unit": "%"}, {"measurement": "residual activity", "setting": "MARK3 (human); compound 0.1 µM", "value": 102, "unit": "%"}, {"measurement": "residual activity", "setting": "MARK3 (human); compound 1.0 µM", "value": 95, "unit": "%"}, {"measurement": "residual activity", "setting": "JAK2 JH1 JH2 (human); compound 0.01 µM", "value": 84, "unit": "%"}, {"measurement": "residual activity", "setting": "JAK2 JH1 JH2 (human); compound 0.1 µM", "value": 101, "unit": "%"}, {"measurement": "residual activity", "setting": "YES1 (human); compound 0.01 µM", "value": 87, "unit": "%"}, {"measurement": "residual activity", "setting": "YES1 (human); compound 0.1 µM", "value": 85, "unit": "%"}, {"measurement": "residual activity", "setting": "[1]; compound 0.01 µM", "value": 93, "unit": "%"}, {"measurement": "residual activity", "setting": "[1]; compound 0.1 µM", "value": 91, "unit": "%"}, {"measurement": "residual activity", "setting": "[1]; compound 1.0 µM", "value": 104, "unit": "%"}, {"measurement": "residual activity", "setting": "MINK1 (human); compound 0.01 µM", "value": 106, "unit": "%"}, {"measurement": "residual activity", "setting": "MINK1 (human); compound 0.1 µM", "value": 111, "unit": "%"}, {"measurement": "residual activity", "setting": "MINK1 (human); compound 1.0 µM", "value": 102, "unit": "%"}, {"measurement": "residual activity", "setting": "MAPKAPK5 (human); compound 0.01 µM", "value": 74, "unit": "%"}, {"measurement": "residual activity", "setting": "MAPKAPK5 (human); compound 0.1 µM", "value": 72, "unit": "%"}, {"measurement": "residual activity", "setting": "MAPKAPK5 (human); compound 1.0 µM", "value": 32, "unit": "%"}]}]}
